These results are taken from patent publication US20060141077A1, “Pest controlling composition and the use thereof” (ORGANOX AB, priority 2002, published 2006).

One series has as its system several aphid species. The experiment in a line: Repellency to aphids (conclusions). It counts as in vivo. Particulars: conclusion statement. On the procedure:
(§1) Responses of R. padi migrants to chemical odours were tested in a 4-way olfactometer (Pettersson, 1970), consisting of an enclosed Perspex arena (12 cm diameter) with a central chamber and four side arms. Air was drawn from the centre of the olfactometer using a water pump, establishing distinct airflow in the side arms. An odour field was established by introducing a chemical (released from a […] capillary tube, or a whole menthol crystal, weight: 0.14 g) into one of the side arms. A single adult apterous aphid was introduced into the olfactometer, and its position was recorded every 3 minutes for 30 minutes. The number of visits to the treatment arm was compared with the mean number of visits to the control arms using a paired t-test. Experiments were repeated 16-20 times (no. individual aphids tested), with the olfactometer turned through 90° between replicates to avoid positional bias. Olfactory responses to plants exposed to chemicals were done in a similar way, except that the odour sources consisted of whole plants enclosed in two-chamber cages attached directly to the olfactometer. In each olfactometer, one treated plant was compared with one untreated plant.

For series [1] the following is noted: orally in rabbits; cited from earlier work.
The conditions of series [2]: human adults; cited from earlier work.
Series [3] has as its system aphids. Particulars: applied by spraying in cereal plots, pilot experiment; cited from earlier work.
The conditions of series [4]: cited from earlier work.
Series [5] deals with Rhopalosiphum padi. Briefly: 4-way olfactometer, direct response to chemical odour. The class given is in vivo. The note with it: R. padi; visits to treatment arm vs control arms. On the procedure: as §1
A further series deals with Aphis fabae. The series is described as above. The class given is in vivo. The note with it: FIG. 1.
The next series has as its system Cavariella aegopodi. The series is described as above. The class given is in vivo. The note with it: FIG. 1.
Series [6] relates to Rhopalosiphum padi. Briefly: Olfactometer response to odour of barley plants exposed to chemicals. Particulars: treated plant vs untreated plant. It counts as in vivo. From the text: Exposure of barley plants to volatile chemicals was done in perspex ‘two-chamber cages’ (Pettersson et al. 1999) attached to a vacuum tank. Air was taken into the first chamber through a hole in the cage wall, passed into the second chamber and was then drawn out from the top of this cage to a vacuum tank before being vented outside the room. Plants were placed in the second chamber, and chemicals were released from microcapillary tubing which hung in the first chamber. Plants were exposed for 5 days, after which time they were removed and used in tests of aphid behaviour. Control plants grew in identical cages with empty microcapillary tubes. Responses of R. padi migrants to chemical odours were tested in a 4-way olfactometer (Pettersson, 1970), consisting of an enclosed Perspex arena (12 cm diameter) with a central chamber and four side arms. Air was drawn from the centre of the olfactometer using a water pump, establishing distinct airflow in the side arms. An odour field was established by introducing a chemical (released from a […] capillary tube, or a whole menthol crystal, weight: 0.14 g) into one of the side arms. A single adult apterous aphid was introduced into the olfactometer, and its position was recorded every 3 minutes for 30 minutes. The number of visits to the treatment arm was compared with the mean number of visits to the control arms using a paired t-test. […]

The test system of series [7] is aphids. Briefly: Test of aphid settling on exposed barley plants. It counts as in vivo. Particulars: barley exposed for 3, 4 and 6 days; FIG. 3. From the text:
Exposure of barley plants to volatile chemicals was done in perspex ‘two-chamber cages’ (Pettersson et al. 1999) attached to a vacuum tank. Air was taken into the first chamber through a hole in the cage wall, passed into the second chamber and was then drawn out from the top of this cage to a vacuum tank before being vented outside the room. Plants were placed in the second chamber, and chemicals were released from microcapillary tubing which hung in the first chamber. […] Control plants grew in identical cages with empty microcapillary tubes. A 50 ml polystyrene tube was placed over the youngest fully developed leaf. The upper end of the tube was covered with a net and the lower end with a foam plastic plug with a slit for the leaf. To minimise mechanical damage to the test plant, a stick was used to support the tube. Ten mixed-instar apterous aphids were placed in the tube and after 2 hours the number of aphids settled (not walking) on the leaf was recorded. Occasionally aphids were able to escape from the tubes, but the results were expressed as a proportion of the number of aphids originally introduced, in case the propensity of an aphid to escape from the tube was influenced by the experimental treatment of the plant. The number of replicates (tubes) varied between experiments, but there were always equal numbers of control and treatment plants. […]

A word on the LD50: it is the dose at which mortality reaches 50%.

`COC(=O)c1ccccc1O` [methyl salicylate, 2-hydroxybenzoic acid methyl ester]: the “repellency for several aphid species” value in the series on several aphid species was “strong repellents”. Besides, the LD50 in [1] was 2800 mg/kg. Besides, the average lethal dose in series [2] is 30 mL. In the series with aphids [3], the “aphid settling in the field” value is on record as “significantly reduced aphid settling”. In addition, the solubility in water result in series [4] was “slightly soluble”.
For the molecule `CC1CCC(C(C)C)C(O)C1` (stereo not shown) [menthol, 5-methyl-2-(1-methylethyl)-cyclohexanol], the “response to chemical odour in the olfactometer” value with Rhopalosiphum padi [5], with Aphis fabae and in the series on Cavariella aegopodi was “strongly repelled” throughout. For the same molecule, the “response to odour of plants exposed to the chemical” value in the series on Rhopalosiphum padi [6] is recorded as “repelled”. In addition, in the series on several aphid species, the “repellency for several aphid species” value is reported as “strong repellents”.
On to `CC12CCC(CC1)C(C)(C)O2` [1,8-cineole, 1,3,3-trimethyl-2-oxabicyclo[2.2.2.]octane], for which the “response to chemical odour in the olfactometer” value in the series on Rhopalosiphum padi [5] was “did not respond”. For the same molecule, the “response to odour of plants exposed to the chemical” value in the series with Rhopalosiphum padi [6] is reported as “less attractive”. In the series with aphids [7], the “aphid settling on plants exposed to the substance” value was “settled significantly less”.
